# Data: patent US20150071974A1, “COMPOUNDS WHICH INHIBIT NEURONAL EXOCYTOSIS” (LUBRIZOL ADVANCED MATERIALS, INC., priority 2012, published 2015)
# Tested on: human neuroblastoma cell line
# Assay: Release of noradrenaline induced by TPA/Ionomycin in a neuroblastoma cell line, quantified by ELISA
# Assay type: cell-based
# Conditions: TPA/ION control = 100.00
# Experimental: Quantification of the Release of Noradrenaline Induced by TPA/Ionomycin in a Neuroblastoma Cell Line by ELISA
# The induction of the release of noradrenaline with TPA (12-O-tetradecanoylphorbol-13-acetate)/lonomycin enables direct measurement of neuronal exocytosis. For the study of the inhibitory effect of the compounds of the invention on the release of noradrenaline, cells of a human neuroblastoma cell line were pre-incubated (1×10^6 cells/well) for 60 minutes with the compound of the invention (1 μM, 10 μM, 100 μM, 500 μM or 1 mM compounds), and afterward the release of noradrenaline was induced. The release of the noradrenaline neurotransmitter was induced by an 8 minute pre-treatment with a solution of 12-O-tetradecanoylphorbol-13-acetate (TPA) 100 nM, which mobilized the intracellular vesicles which contained the neurotransmitter; followed by a 5 minute incubation with TPA/Ionomycin (100 nM/10 μM), which induced the release of the neurotransmitter contained in these vesicles. […] For this, absorbance at 405 nm was measured in Thermo Scientific Multiskan Ascent equipment.
# The blocking of the SNARE complex by the compounds of the invention lead to an inhibition of neuronal exocytosis and therefore, a decrease in the levels of released noradrenaline (Table 6).
Substance,% RELEASED NORADRENALINE Average (dose 10 μM) [%],% RELEASED NORADRENALINE Average (dose 100 μM) [%],% RELEASED NORADRENALINE Average (dose 1000 μM) [%]
Ac-QNLEHIMDQ-NH2 [Ac-SEQ ID NO: 62-NH2],77.76,82.72,63.99
Ac-HQEHRKMD-NH2 [Ac-SEQ ID NO: 5-NH2],85.68,81.50,51.45
Ac-QQLENIMDN-NH2 [Ac-SEQ ID NO: 51-NH2],81.13,101.40,35.37
